Structures can show the parent of a compound that is named as a salt. Where two headings read alike, the source gives them in different places.
Key:
human NTCP [1] = target: T1, human NTCP (Homo sapiens, UniProt Q14973); experiment: Screening taurocholate uptake assay (96-well, [14C]taurocholate, 10 µM drug)
T1 sequence (Q14973 1-349): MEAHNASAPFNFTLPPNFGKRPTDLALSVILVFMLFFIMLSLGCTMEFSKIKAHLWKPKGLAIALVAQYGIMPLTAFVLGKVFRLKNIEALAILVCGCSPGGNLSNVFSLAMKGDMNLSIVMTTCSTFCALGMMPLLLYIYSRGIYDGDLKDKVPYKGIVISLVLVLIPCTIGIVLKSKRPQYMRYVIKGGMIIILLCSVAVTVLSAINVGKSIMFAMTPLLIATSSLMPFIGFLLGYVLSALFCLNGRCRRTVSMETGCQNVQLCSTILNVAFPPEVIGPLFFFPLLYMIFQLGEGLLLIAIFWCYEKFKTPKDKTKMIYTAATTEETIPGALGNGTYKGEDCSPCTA

human NTCP [2] = target: T1, human NTCP; experiment: Screening fluorescent competitive Myrcludex B-FITC binding assay (96-well, 10 µM drug)
[3] = Prestwick library screen, taurocholate uptake, 10 µM drug
[4] = ranking score beside the functional and binding assay B-scores of the screen
[5] = Prestwick library screen, Myrcludex B-FITC binding, 10 µM drug
[6] = Prestwick library screen, 10 µM drug, B-score of taurocholate uptake
[7] = combined ranking from functional and binding assay B-scores
[8] = Prestwick library screen, 10 µM drug, B-score of Myrcludex B-FITC binding
[9] = combined ranking from functional and binding screening assays
[10] = screen, 10 µM drug, taurocholate uptake
[11] = screen, 10 µM drug, Myrcludex B-FITC binding

Row | Structure (SMILES) | Ranking score (human NTCP [1]; [9]) | B-score functional assay (human NTCP [1]; [10]) | B-score binding assay (human NTCP [2]; [11]) | further results
1 | CN(C)[C@@H]1C(O)=C(C(N)=O)C(=O)[C@@]2(O)C(O)=C3C(=O)c4c(O)ccc(Cl)c4[C@@H](O)[C@H]3C[C@@H]12 [Demeclocycline hydrochloride] | – | – | – | B-score functional assay (human NTCP [1]; [3]): 0.083; Ranking score (human NTCP [1]; [4]): 738.496; B-score binding assay (human NTCP [2]; [5]): 0.096
2 | CN1[C@@H]2CC[C@H]1C[C@@H](OC1c3ccccc3CCc3ccccc31)C2.O=C(O)CC(O)(CC(=O)O)C(=O)O [Deptropine citrate] | – | – | – | B-score functional assay (human NTCP [1]; [6]): 0.947; Ranking score (human NTCP [1]; [7]): 1000.12; B-score binding assay (human NTCP [2]; [8]): 0.633
3 | Cc1cc(N)c2ccccc2[n+]1CCCCCCCCCC[n+]1c(C)cc(N)c2ccccc21 [Dequalinium dichloride] | – | – | – | B-score functional assay (human NTCP [1]; [3]): -0.527; Ranking score (human NTCP [1]; [4]): 680.714; B-score binding assay (human NTCP [2]; [5]): 3.994
4 | CC1(C)O[C@@H]2C[C@H]3[C@@H]4CCC5=CC(=O)C=C[C@]5(C)[C@H]4[C@@H](O)C[C@]3(C)[C@]2(C(=O)CO)O1 [Desonide] | – | – | – | B-score functional assay (human NTCP [1]; [3]): -0.358; Ranking score (human NTCP [1]; [4]): 665.567; B-score binding assay (human NTCP [2]; [5]): 0.993
5 | CCN[C@@H](C)Cc1cccc(C(F)(F)F)c1 [Dexfenfluramine hydrochloride] | 401.597 | -0.697 | -0.169 | –
6 | CC(=O)Nc1c(I)c(NC(C)=O)c(I)c(C(=O)O)c1I.O.O [Diatrizoic acid dihydrate] | – | – | – | B-score functional assay (human NTCP [1]; [3]): -0.248; Ranking score (human NTCP [1]; [4]): 739.319; B-score binding assay (human NTCP [2]; [5]): 1.833
7 | CC1=NS(=O)(=O)c2cc(Cl)ccc2N1 [Diazoxide] | 331.971 | -1.121 | -0.26 | –
8 | NS(=O)(=O)c1cc(Cl)c(Cl)c(S(N)(=O)=O)c1 [Dichlorphenamide] | – | – | – | B-score functional assay (human NTCP [1]; [6]): 0.709; Ranking score (human NTCP [1]; [7]): 1091.62; B-score binding assay (human NTCP [2]; [8]): 2.215
9 | Cc1onc(-c2c(Cl)cccc2Cl)c1C(=O)N[C@@H]1C(=O)N2[C@@H]1SC(C)(C)[C@@H]2C(=O)[O-].O.[Na+] [Dicloxacillin sodium salt hydrate] | – | – | – | B-score functional assay (human NTCP [1]; [6]): 0.63; Ranking score (human NTCP [1]; [7]): 908.983; B-score binding assay (human NTCP [2]; [8]): 0.373
10 | O=c1oc2ccccc2c(O)c1Cc1c(O)c2ccccc2oc1=O [Dicumarol] | 403.485 | -1.792 | 1.31 | –
11 | O=c1[nH]cnc2c1ncn2[C@H]1CC[C@@H](CO)O1 [Didanosine] | – | – | – | B-score functional assay (human NTCP [1]; [6]): 0.086; Ranking score (human NTCP [1]; [7]): 927.069; B-score binding assay (human NTCP [2]; [8]): 1.663
12 | C/C=C(/C(=C/C)c1ccc(O)cc1)c1ccc(O)cc1 [Dienestrol] | 419.874 | -0.196 | -0.567 | –
13 | CCN(CC)C(=O)N1CCN(C)CC1 [Diethylcarbamazine citrate] | – | – | – | B-score functional assay (human NTCP [1]; [3]): 0.671; Ranking score (human NTCP [1]; [4]): 718.594; B-score binding assay (human NTCP [2]; [5]): -0.121
14 | CC(=O)OCC(=O)[C@@]1(OC(C)=O)[C@@H](C)C[C@H]2[C@@H]3C[C@H](F)C4=CC(=O)C=C[C@]4(C)[C@@]3(F)[C@@H](O)C[C@@]21C [Diflorasone Diacetate] | 327.658 | -0.194 | -1.118 | –
15 | C[C@]12CC[C@H](O)C[C@H]1CC[C@@H]1[C@@H]2CC[C@]2(C)[C@@H](C3=CC(=O)OC3)CC[C@]12O [Digitoxigenin] | 348.633 | -2.282 | 1.274 | –
16 | C[C@]12CC[C@H](O)C[C@H]1CC[C@@H]1[C@@H]2C[C@@H](O)[C@]2(C)[C@@H](C3=CC(=O)OC3)CC[C@]12O [Digoxigenin] | 283.718 | -0.468 | -1.199 | –
17 | C[C@H]1O[C@@H](O[C@H]2[C@@H](O)C[C@H](O[C@H]3[C@@H](O)C[C@H](O[C@H]4CC[C@@]5(C)[C@H](CC[C@@H]6[C@@H]5C[C@@H](O)[C@]5(C)[C@@H](C7=CC(=O)OC7)CC[C@]65O)C4)O[C@@H]3C)O[C@@H]2C)C[C@H](O)[C@@H]1O [Digoxin] | 426.002 | -1.822 | 2.8 | –
18 | CN1C[C@H](C(=O)N[C@]2(C)O[C@@]3(O)[C@@H]4CCCN4C(=O)[C@H](Cc4ccccc4)N3C2=O)C[C@@H]2c3cccc4[nH]cc(c34)C[C@H]21.CN1C[C@H](C(=O)N[C@]2(C)O[C@@]3(O)[C@@H]4CCCN4C(=O)[C@H](Cc4ccccc4)N3C2=O)C[C@@H]2c3cccc4[nH]cc(c34)C[C@H]21.O=C(O)C(O)C(O)C(=O)O [Dihydroergotamine tartrate] | 379.284 | 0.679 | -1.57 | –
19 | COc1ccc([C@@H]2Sc3ccccc3N(CCN(C)C)C(=O)[C@@H]2OC(C)=O)cc1 [Diltiazem hydrochloride] | 351.949 | -0.552 | -0.608 | –
20 | CN(C)CCCSC(=N)N.Cl.Cl [Dimaprit dihydrochloride] | – | – | – | B-score functional assay (human NTCP [1]; [6]): 0.472; Ranking score (human NTCP [1]; [7]): 1022.56; B-score binding assay (human NTCP [2]; [8]): 1.724

Row | Structure (SMILES) | Ranking score (human NTCP [1]; [9]) | B-score functional assay (human NTCP [1]; [10]) | B-score binding assay (human NTCP [2]; [11]) | further results
21 | CC1(C)OC(=O)NC1=O [Dimethadione] | 328.253 | 0.349 | -1.829 | –
22 | COc1ccc(C(=O)c2ccccc2O)c(O)c1 [Dioxybenzone] | 401.91 | 0.002 | -0.95 | –
23 | O=C(Nc1ccccc1)OCC(CN1CCCCC1)OC(=O)Nc1ccccc1 (stereo not drawn) [Diperodon hydrochloride] | – | – | – | B-score functional assay (human NTCP [1]; [3]): 0.512; Ranking score (human NTCP [1]; [4]): 772.884; B-score binding assay (human NTCP [2]; [5]): 0.002
24 | OC(CCCN1CCCCC1)(c1ccccc1)c1ccccc1 [Diphenidol hydrochloride] | 367.214 | -1.4 | 0.054 | –
25 | Cn1c(=O)c2c(ncn2CC(O)CO)n(C)c1=O (stereo not drawn) [Diprophylline] | – | – | – | B-score functional assay (human NTCP [1]; [3]): -0.019; Ranking score (human NTCP [1]; [4]): 816.025; B-score binding assay (human NTCP [2]; [5]): 1.219
26 | OCCN(CCO)c1nc(N2CCCCC2)c2nc(N(CCO)CCO)nc(N3CCCCC3)c2n1 [Dipyridamole] | 317.643 | -1.651 | -0.011 | –
27 | Cc1c(N(C)CS(=O)(=O)[O-])c(=O)n(-c2ccccc2)n1C.[Na+] [Dipyrone] | 355.307 | -0.152 | -0.963 | –
28 | CC[C@H]1OC(=O)[C@H](C)[C@@H](O[C@H]2C[C@@](C)(OC)[C@@H](O)[C@H](C)O2)[C@H](C)[C@@H](O[C@@H]2O[C@H](C)C[C@H](N(C)C)[C@H]2O)[C@](C)(O)C[C@@H](C)[C@@H]2N[C@@H](COCCOC)O[C@H]([C@H]2C)[C@]1(C)O [Dirithromycin] | – | – | – | B-score functional assay (human NTCP [1]; [6]): 1.532; Ranking score (human NTCP [1]; [7]): 934.441; B-score binding assay (human NTCP [2]; [8]): 0.123
29 | CC(C)N(CCC(C(N)=O)(c1ccccc1)c1ccccn1)C(C)C (stereo not drawn) [Disopyramide] | – | – | – | B-score functional assay (human NTCP [1]; [6]): 0.051; Ranking score (human NTCP [1]; [7]): 925.407; B-score binding assay (human NTCP [2]; [8]): 2.245
30 | CC(CCc1ccc(O)cc1)NCCc1ccc(O)c(O)c1 (stereo not drawn) [Dobutamine hydrochloride] | – | – | – | B-score functional assay (human NTCP [1]; [3]): -0.038; Ranking score (human NTCP [1]; [4]): 789.916; B-score binding assay (human NTCP [2]; [5]): 1.051
31 | NCCc1ccc(O)c(O)c1 [Dopamine hydrochloride] | – | – | – | B-score functional assay (human NTCP [1]; [3]): -0.07; Ranking score (human NTCP [1]; [4]): 802.566; B-score binding assay (human NTCP [2]; [5]): 1.493
32 | CCN[C@H]1C[C@H](C)S(=O)(=O)c2sc(S(N)(=O)=O)cc21 [Dorzolamide hydrochloride] | 369.324 | -0.44 | -0.624 | –
33 | CN(C)CC/C=C1\c2ccccc2CSc2ccccc21 [Dosulepin hydrochloride] | 296.985 | -2.363 | 0.311 | –
34 | CCN1CC(CCN2CCOCC2)C(c2ccccc2)(c2ccccc2)C1=O.Cl (stereo not drawn) [Doxapram hydrochloride] | 446.058 | 0.629 | -1.194 | –
35 | COc1cc2nc(N3CCN(C(=O)C4COc5ccccc5O4)CC3)nc(N)c2cc1OC (stereo not drawn) [Doxazosin mesylate] | – | – | – | B-score functional assay (human NTCP [1]): -0.292; Ranking score (human NTCP [1]): 599.787; B-score binding assay (human NTCP [2]): 0.211
36 | CN(C)CCC=C1c2ccccc2COc2ccccc21 [Doxepin hydrochloride] | 385.759 | -1.158 | 0.002 | –
37 | Cn1c(=O)c2c(ncn2CC2OCCO2)n(C)c1=O [Doxofylline] | – | – | – | B-score functional assay (human NTCP [1]; [6]): 3.316; Ranking score (human NTCP [1]; [7]): 1049.35; B-score binding assay (human NTCP [2]; [8]): 0.388
38 | COc1cccc2c1C(=O)c1c(O)c3c(c(O)c1C2=O)C[C@@](O)(C(=O)CO)C[C@@H]3O[C@H]1C[C@H](N)[C@H](O)[C@H](C)O1 [Doxorubicin hydrochloride] | – | – | – | B-score functional assay (human NTCP [1]): 0.02; Ranking score (human NTCP [1]): 577.781; B-score binding assay (human NTCP [2]): -0.177
39 | C[C@H]1c2cccc(O)c2C(=O)C2=C(O)[C@]3(O)C(=O)C(C(N)=O)=C(O)[C@@H](N(C)C)[C@@H]3[C@@H](O)[C@@H]21 [Doxycycline hydrochloride] | 380.385 | -0.015 | -1.041 | –
40 | CN(C)CCOC(C)(c1ccccc1)c1ccccn1 (stereo not drawn) [Doxylamine succinate] | 393.435 | 0.231 | -1.318 | –
